Entries after “also recorded” stand apart in the source; their conditions may differ. Like-named read-outs stand apart in the source and are kept apart here.
Tests used:
[1] = tested on: P. falciparum mature gametocytes / male gamete exflagellation; experiment: P. falciparum exflagellation assay; format: cell-based, Plasmodium falciparum; conditions: for inhibition at 10 µM: Plasmodium falciparum
[2] = tested on: P. falciparum oocyst formation; experiment: Standard membrane feed assay, P. falciparum oocysts in A. stephensi; format: in vivo, Plasmodium falciparum; conditions: 10 µM, gametocytes exposed 24 h before feeding
Protocol: Gametocyte cultures were produced according to the same protocol as the Pf exflagellation assay. Pooled gametocyte cultures were evenly divided between compounds in fresh medium and incubated at 37°C for 24 h. The parasite pellets were then resuspended in fresh RBCs and human serum treated with the compounds to a 50% haematocrit and immediately fed to mosquitoes as described above and then maintained at 27°C/60%RH for 10–12 d before dissection and counting.
Figure 3 The transmission-blocking potential of selected antimalarials in three bioassays that cover different phases of Plasmodium vector stage development. (A) Assays examined exflagellation (P. falciparum), ookinete formation (P. berghei), or oocyst formation (P. falciparum). All antimalarials were screened at 10 µM. (B) The biological content of the in vitro P. berghei ookinete assay spans gamete formation, fertilization, zygote development, and ookinete formation. Ookinete formation was insensitive to most of the antimalarials tested. […] (D) The in vitro P. falciparum exflagellation assay exposes mature gametocytes to antimalarials for 24 h before triggering exflagellation. […] All experiments in triplicate. (E) The in vivo P. falciparum oocyst assay differs from the P. berghei oocyst assay in that mature gametocytes were exposed to the antimalarials in culture for 24 h before feeding to mosquitoes. […] NPC1161-B, lumefantrine, halofantrine, and mefloquine +RS isomer were also active. (n = 4–61 observations; average ± standard error of the mean [SEM]).

[3] = tested on: P. yoelii liver stage parasites (liver schizonts); experiment: P. yoelii liver stage assay in HepG2 cells (EEF immunofluorescence); format: cell-based, Plasmodium yoelii; conditions: for IC50: Plasmodium yoelii
Plasmodium oocysts = experiment: Oocyst development / sporogony, Plasmodium species not stated at the place; format: in vivo; conditions: for inhibition at 10 µM: Plasmodium, box linked to oocysts, read-out: Inhibition at 10 μM (oocysts, Figure 5)
[4] = 10 µM, 24 h exposure of mature gametocytes

Row | SMILES | effect on exflagellation (words) [1, 4] | effect on exflagellation (words) ([1]; 10 µM, 24 h exposure of mature gametocytes, listed as NPC1161-B) | inhibition at 10 µM ([1]; read-out: inhibition of exflagellation, 10 µM, 24 h exposure of mature gametocytes) [%] | inhibition at 10 µM ([1]; 10 μM, box linked to gametocytes/exflagellation, read-out: Inhibition at 10 μM (gametocytes/exflagellation, Figure 5)) [%] | transmission-blocking effect on P. falciparum oocysts (words) [2] | transmission-blocking effect on P. falciparum oocysts (words) ([2]; listed as NPC1161-B) | IC50 ([3]; HepG2, box linked to liver schizont, read-out: IC50 (liver schizont, Figure 5)) [nM] | IC50 ([3]; development of P. yoelii liver schizonts following infection of HepG2 cells, read-out: IC50 Parasite) [nM] | potency range against liver stages ([3]; dose response) | inhibition at 10 µM (Plasmodium oocysts) [%] | effect on sporogony / oocyst production (Plasmodium oocysts; species not given) | enhancement (stimulation) of exflagellation [1, 4] [%] | IC50 ([3]; HepG2, development of P. yoelii liver schizonts following infection of HepG2 cells, read-out: IC50 Parasite) [nM]
1 | COc1cc(N[C@H](C)CCCN)c2nccc(C)c2c1Oc1ccc(Cl)c(Cl)c1 [NPC-1161B] | inhibited exflagellation totally; also recorded: inhibit exflagellation in vitro; also recorded: inhibited both exflagellation and oocyst production | showed potency | > 70 | > 60 | totally blocked transmission | active; also recorded: showed potency | < 1000 | 720 ± 70 | submicromolar range | > 90 | inhibits sporogony; also recorded: inhibit exflagellation in vitro and oocyst production in the mosquito vector; also recorded: inhibited both exflagellation and oocyst production | – | –
2 | CCCCN(CCCC)CCC(O)c1cc2c(Cl)cc(Cl)cc2c2cc(C(F)(F)F)ccc12 (stereo not shown) [halofantrine] | only moderate or no inhibition of exflagellation | – | – | – | active; also recorded: impaired sporogony | – | – | – | – | > 90 | – | 45 | 2320 ± 1350

Source: paper PMC3283556, “The Activities of Current Antimalarial Drugs on the Life Cycle Stages of Plasmodium: A Comparative Study with Human and Rodent Parasites” (PLoS Medicine, 2012)
